Source: the supplement of paper PMC10307832

Key:
Experiment in all cases: relative viability (nuclei count vs DMSO), 5 days (fraction); higher = more cells survive
17-AAG + Alpelisib = compound: C=CCNC1=C2C[C@@H](C)C[C@H](OC)[C@H](O)[C@@H](C)/C=C(\C)[C@H](OC(N)=O)[C@@H](OC)/C=C\C=C(/C)C(=O)NC(=CC1=O)C2=O [17-AAG] + Cc1nc(NC(=O)N2CCC[C@H]2C(N)=O)sc1-c1ccnc(C(C)(C)C(F)(F)F)c1 [Alpelisib] (partner 2 µM)
In short: (§1)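 One day after seeding in 1536-well plates, lung cancer cell lines were dosed by pin tool. Dosing was either single-drug or a fixed anchor-drug dose plus five library-drug doses (not always all listed) in √10 steps. After 5 days, nuclei were stained in one fix-and-stain step and counted on 4× images, and relative viability is the nuclei count of treated wells over that of vehicle wells, given as the median of duplicate plates.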

17-AAG + Pictilisib = compound: C=CCNC1=C2C[C@@H](C)C[C@H](OC)[C@H](O)[C@@H](C)/C=C(\C)[C@H](OC(N)=O)[C@@H](OC)/C=C\C=C(/C)C(=O)NC(=CC1=O)C2=O [17-AAG] + CS(=O)(=O)N1CCN(Cc2cc3nc(-c4cccc5[nH]ncc45)nc(N4CCOCC4)c3s2)CC1 [Pictilisib] (partner 1 µM)
In short: as §1

17-AAG + Linsitinib = compound: C=CCNC1=C2C[C@@H](C)C[C@H](OC)[C@H](O)[C@@H](C)/C=C(\C)[C@H](OC(N)=O)[C@@H](OC)/C=C\C=C(/C)C(=O)NC(=CC1=O)C2=O [17-AAG] + C[C@]1(O)C[C@@H](c2nc(-c3ccc4ccc(-c5ccccc5)nc4c3)c3c(N)nccn32)C1 [Linsitinib] (partner 1 µM)
In short: as §1

17-AAG + Decitabine = compound: C=CCNC1=C2C[C@@H](C)C[C@H](OC)[C@H](O)[C@@H](C)/C=C(\C)[C@H](OC(N)=O)[C@@H](OC)/C=C\C=C(/C)C(=O)NC(=CC1=O)C2=O [17-AAG] + Nc1ncn([C@H]2C[C@H](O)[C@@H](CO)O2)c(=O)n1 [Decitabine] (partner 2 µM)
In short: as §1

Cell Line | relative viability (17-AAG + Alpelisib; first compound 0.00128 µM) | relative viability (17-AAG + Alpelisib; first compound 0.004048 µM) | relative viability (17-AAG + Alpelisib; first compound 0.0128 µM) | relative viability (17-AAG + Alpelisib; first compound 0.04048 µM) | relative viability (17-AAG + Alpelisib; first compound 0.128 µM) | relative viability (17-AAG + Pictilisib; first compound 0.00128 µM) | relative viability (17-AAG + Pictilisib; first compound 0.004048 µM) | relative viability (17-AAG + Pictilisib; first compound 0.0128 µM) | relative viability (17-AAG + Pictilisib; first compound 0.04048 µM) | relative viability (17-AAG + Pictilisib; first compound 0.128 µM) | relative viability (17-AAG + Linsitinib; first compound 0.00128 µM) | relative viability (17-AAG + Linsitinib; first compound 0.004048 µM) | relative viability (17-AAG + Linsitinib; first compound 0.0128 µM) | relative viability (17-AAG + Linsitinib; first compound 0.04048 µM) | relative viability (17-AAG + Linsitinib; first compound 0.128 µM) | relative viability (17-AAG + Decitabine; first compound 0.00128 µM) | relative viability (17-AAG + Decitabine; first compound 0.004048 µM) | relative viability (17-AAG + Decitabine; first compound 0.0128 µM) | relative viability (17-AAG + Decitabine; first compound 0.04048 µM) | relative viability (17-AAG + Decitabine; first compound 0.128 µM)
NCI-H2126 | 0.757 | 0.792 | 0.742 | 0.714 | 0.303 | 0.509 | 0.533 | 0.492 | 0.316 | 0.284 | 0.753 | 0.688 | 0.776 | 0.692 | 0.373 | 0.556 | 0.631 | 0.616 | 0.622 | 0.456
LXF-289 | 1.07 | 1.03 | 0.882 | 0.647 | 0.118 | 0.823 | 0.805 | 0.239 | 0.107 | 0.0836 | 0.964 | 0.954 | 0.924 | 0.52 | 0.179 | 0.4 | 0.473 | 0.355 | 0.297 | 0.19
NCI-H520 | 0.993 | 0.838 | 0.839 | 0.155 | 0.132 | 0.275 | 0.254 | 0.207 | 0.167 | 0.161 | 0.987 | 0.856 | 0.728 | 0.144 | 0.122 | 0.364 | 0.555 | 0.411 | 0.16 | 0.171
NCI-H1395 | 1.02 | 0.967 | 0.804 | 0.395 | 0.388 | 0.659 | 0.614 | 0.381 | 0.354 | 0.435 | 1.12 | 1.1 | 0.705 | 0.469 | 0.383 | 0.611 | 0.694 | 0.568 | 0.387 | 0.383
NCI-H2009 | 1.13 | 1.19 | 1.13 | 0.853 | 0.366 | 0.744 | 0.829 | 0.744 | 0.277 | 0.091 | 1.14 | 1.2 | 1.01 | 0.775 | 0.328 | 0.421 | 0.398 | 0.342 | 0.265 | 0.134
